From US9751854B2 (Millennium Pharmaceuticals, Inc., priority 2014, dated 2017)

Target: human VPS34 (Homo sapiens (Human), UniProt Q8NEB9)
Test: Human VPS34 enzyme assay (Adapta TR-FRET ADP detection)
Format: biochemical
Set-up: Percent Inhibition: dose or concentration left out as unconfirmed
Conditions: for IC50: IC50 range class

Sequence of human VPS34 (Q8NEB9 whole entry): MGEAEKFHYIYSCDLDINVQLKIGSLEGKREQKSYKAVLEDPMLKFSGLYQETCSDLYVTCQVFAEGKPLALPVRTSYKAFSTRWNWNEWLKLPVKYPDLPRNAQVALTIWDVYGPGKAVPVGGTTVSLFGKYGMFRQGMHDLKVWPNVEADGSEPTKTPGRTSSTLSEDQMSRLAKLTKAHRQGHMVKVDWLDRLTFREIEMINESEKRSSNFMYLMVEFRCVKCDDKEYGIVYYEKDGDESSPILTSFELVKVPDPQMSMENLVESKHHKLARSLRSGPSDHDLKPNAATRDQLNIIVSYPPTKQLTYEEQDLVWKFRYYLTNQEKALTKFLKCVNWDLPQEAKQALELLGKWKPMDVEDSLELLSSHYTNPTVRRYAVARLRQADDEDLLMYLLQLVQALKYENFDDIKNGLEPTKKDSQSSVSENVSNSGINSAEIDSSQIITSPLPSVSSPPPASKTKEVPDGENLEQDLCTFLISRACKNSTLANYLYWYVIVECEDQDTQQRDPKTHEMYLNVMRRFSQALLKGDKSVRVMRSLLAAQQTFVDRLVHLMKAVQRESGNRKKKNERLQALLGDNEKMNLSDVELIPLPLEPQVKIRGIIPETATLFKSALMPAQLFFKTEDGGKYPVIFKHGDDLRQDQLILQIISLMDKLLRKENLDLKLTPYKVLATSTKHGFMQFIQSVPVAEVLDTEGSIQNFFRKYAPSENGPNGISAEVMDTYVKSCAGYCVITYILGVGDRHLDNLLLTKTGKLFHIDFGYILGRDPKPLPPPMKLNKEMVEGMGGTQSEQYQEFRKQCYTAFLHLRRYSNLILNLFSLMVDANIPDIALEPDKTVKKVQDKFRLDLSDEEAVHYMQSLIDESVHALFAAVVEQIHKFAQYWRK

SMILES | IC50 | Percent Inhibition
CC(=O)Nc1cc(-c2cnc(Cl)c(S(=O)(=O)N[C@H](CO)c3ccccc3)c2)ccn1 [Compound I-330, N-(6-chloro-5-{[(1S)-2-hydroxy-1-phenylethyl]sulfamoyl}-3,4′-bipyridin-2′-yl)acetamide] | > 100 nM | >99%
COc1ncc(-c2ccnc(NC(C)=O)c2)cc1N(C)C(=O)c1ccc(F)cc1F [Compound I-331, N-(2′-acetamido-6-methoxy-3,4′-bipyridin-5-yl)-2,4-difluoro-N-methylbenzamide] | > 100 nM | 
CC(=O)Nc1cc(-c2cnc3c(c2)S(=O)(=O)N[C@@H](c2ccccc2)CO3)ccn1 [Compound I-334, (S)-N-[4-(1,1-dioxido-3-phenyl-3,4-dihydro-2H-pyrido[2,3-b][1,4,5]oxathiazepin-8-yl)pyridin-2-yl]acetamide] | > 100 nM | 
CC(=O)Nc1cc(-c2cnc(N)c(N3CCCC3=O)c2)ccn1 [Compound I-337, N-[6-amino-5-(2-oxopyrrolidin-1-yl)-3,4′-bipyridin-2′-yl]acetamide] | > 100 nM | 
CC(=O)Nc1cc(-c2cnc(C)c(NS(=O)(=O)c3cccc(C)c3F)c2)ccn1 [Compound I-339, N-(5-{[(2-fluoro-3-methylphenyl)sulfonyl]amino}-6-methyl-3,4′-bipyridin-2′-yl)acetamide] | 10 to 50 nM | 
CC(=O)Nc1cc(-c2cc(NS(=O)(=O)c3ccc(F)cc3F)c3ncnn3c2)ccn1 [Compound I-340, N-[4-(8-{[(2,4-difluorophenyl)sulfonyl]amino}[1,2,4]triazolo[1,5-a]pyridin-6-yl)pyridin-2-yl]acetamide] | 10 to 50 nM | 
CC(=O)Nc1cc(-c2cnc(C)c(NS(=O)(=O)N3CCCCCC3)c2)ccn1 [Compound I-341] | 10 to 50 nM | 
CC(=O)Nc1cc(-c2cnc(C)c(N3CCCN(C)S3(=O)=O)c2)ccn1 [Compound I-343] | 10 to 50 nM | 
COc1ncc(-c2ccnc(NC(C)=O)c2)cc1S(=O)(=O)Nc1ccc(Cl)cc1Cl [Compound I-344] | 10 to 50 nM | 
Cc1nccc(Nc2cc(-c3cnc(C)c(C(=O)N(C)c4ccc(F)cc4F)c3)ccn2)n1 [Compound I-346, N-(2,4-difluorophenyl)-N,6-dimethyl-2′-[(2-methylpyrimidin-4-yl)amino]-3,4′-bipyridine-5-carboxamide] | 10 to 50 nM | 
COc1ncc(-c2ccnc(NC(C)=O)c2)cc1NC(=O)c1ccc(F)cc1F [Compound I-347, N-(2′-acetamido-6-methoxy-3,4′-bipyridin-5-yl)-2,4-difluorobenzamide] | > 100 nM | 
CC(=O)Nc1cc(-c2cncc(NS(=O)(=O)N(C)C)c2)ccn1 [Compound I-348, N-{5-[(dimethylsulfamoyl)amino]-3,4′-bipyridin-2′-yl}acetamide] | 10 to 50 nM | 
Cc1nccc(Nc2cc(-c3cncc(C(C)OCc4ccccn4)c3)ccn2)n1 (stereo not shown) [Compound I-349, N-(2-methylpyrimidin-4-yl)-5-[1-(pyridin-2-ylmethoxy)ethyl]-3,4′-bipyridin-2′-amine] | 10 to 50 nM | 
CC(=O)Nc1cc(-c2cnc(C)c(N3CCNS3(=O)=O)c2)ccn1 [Compound I-352, N-[5-(1,1-dioxido-1,2,5-thiadiazolidin-2-yl)-6-methyl-3,4′-bipyridin-2′-yl]acetamide] | 50 to 100 nM | 
CC(=O)Nc1cc(-c2cnc(C)c(S(=O)(=O)Nc3ccc(F)cc3F)c2)ccn1 [Compound I-353, N-(5-(N-(2,4-difluorophenyl)sulfamoyl)-6-methyl-[3,4′-bipyridin]-2′-yl)acetamide] | 10 to 50 nM | 
CC(=O)Nc1cc(-c2cnc(Cl)c(NS(=O)(=O)c3c(Cl)cccc3Cl)c2C)ccn1 [Compound I-354, N-(6-chloro-5-{[(2,6-dichlorophenyl)sulfonyl]amino}-4-methyl-3,4′-bipyridin-2′-yl)acetamide] | 10 to 50 nM | 
Cc1c(-c2ccnc(Nc3ccnc(C4CC4)n3)c2)cnc(Cl)c1N [Compound I-355, 6-chloro-N-2-′-(2-cyclopropylpyrimidin-4-yl)-4-methyl-3,4′-bipyridine-2′,5-diamine] | 10 to 50 nM | 
CC(=O)Nc1cc(-c2cnc(C)c(N3CC(NCc4ccccc4)CS3(=O)=O)c2)ccn1 (stereo not shown) [Compound I-357, N-{5-[4-(benzylamino)-1,1-dioxidoisothiazolidin-2-yl]-6-methyl-3,4′-bipyridin-2′-yl}acetamide] | 10 to 50 nM | 
COc1ncc(-c2ccnc(NC(C)=O)c2)cc1S(=O)(=O)Nc1cc(F)ccc1F [Compound I-358, N-{5-[(2,5-difluorophenyl)sulfamoyl]-6-methoxy-3,4′-bipyridin-2′-yl}acetamide] | 10 to 50 nM | 
CC(=O)Nc1cc(-c2cnc(C)c(OS(=O)(=O)N(C)C)c2)ccn1 [Compound I-359, 2′-acetamido-6-methyl-3,4′-bipyridin-5-yl dimethylsulfamate] | 10 to 50 nM | 
Cc1c(-c2ccnc(Nc3ccnc(C4CC4)n3)c2)cnc(Cl)c1C(=O)N1CCC1 [Compound I-361, azetidin-1-yl(6-chloro-2′-((2-cyclopropylpyrimidin-4-yl)amino)-4-methyl-[3,4′-bipyridin]-5-yl)methanone] | 10 to 50 nM | 
CC(=O)Nc1cc(-c2cnc(Cl)c(NS(=O)(=O)c3ccc(C#N)cc3Cl)c2C)ccn1 [Compound I-362, N-(6-chloro-5-{[(2-chloro-4-cyanophenyl)sulfonyl]amino}-4-methyl-3,4′-bipyridin-2′-yl)acetamide] | 10 to 50 nM | 
Cc1nccc(Nc2cc(-c3cnc(C)c(OCc4ccccc4)c3)ccn2)n1 [Compound I-363, 5-(benzyloxy)-6-methyl-N-(2-methylpyrimidin-4-yl)-3,4′-bipyridin-2′-amine] | > 100 nM | 
CCOC(=O)Nc1cc(-c2cnc(C)c(NS(=O)(=O)N(C)C)c2)ccn1 [Compound I-364, ethyl {5-[(dimethylsulfamoyl)amino]-6-methyl-3,4′-bipyridin-2′-yl}carbamate] | 10 to 50 nM | 
CC(=O)Nc1cc(-c2cncc(S(=O)(=O)N(C)c3ccccc3)c2)ccn1 [Compound I-365, N-{5-[methyl(phenyl)sulfamoyl]-3,4′-bipyridin-2′-yl}acetamide] | 10 to 50 nM | 
CC(=O)Nc1cc(-c2cnc(Cl)c(S(=O)(=O)NC34CC(C3)C4)c2)ccn1 [Compound I-366, N-[5-(bicyclo[1.1.1]pent-1-ylsulfamoyl)-6-chloro-3,4′-bipyridin-2′-yl]acetamide] | 10 to 50 nM | 
CCNC(=O)Nc1cc(-c2ccnc(Nc3ccnc(C)n3)c2)cnc1C [Compound I-367, 1-ethyl-3-{6-methyl-2′-[(2-methylpyrimidin-4-yl)amino]-3,4′-bipyridin-5-yl}urea] | 50 to 100 nM | 
Cc1ncc(-c2ccnc(Nc3ccnc(C4CC4)n3)c2)cc1NC(=O)N1CC(F)(F)C1 [Compound I-368, N-(2′-((2-cyclopropylpyrimidin-4-yl)amino)-6-methyl-[3,4′-bipyridin]-5-yl)-3,3-difluoroazetidine-1-carboxamide] | 10 to 50 nM | 

Now from value to compound:

IC50 | Percent Inhibition | SMILES
10 to 50 nM |  | CC(=O)Nc1cc(-c2cnc(N)c(N3CCCN(C)S3(=O)=O)c2)ccn1 [Compound I-323, N-[6-amino-5-(6-methyl-1,1-dioxido-1,2,6-thiadiazinan-2-yl)-3,4′-bipyridin-2′-yl]acetamide]
10 to 50 nM |  | Cc1ncc(-c2ccnc(NC(=O)OCC3(C)COC3)c2)cc1NS(=O)(=O)c1ccc(F)cc1F [Compound I-324, (3-methyloxetan-3-yl)methyl (5-{[(2,4-difluorophenyl)sulfonyl]amino}-6-methyl-3,4′-bipyridin-2′-yl)carbamate]
10 to 50 nM |  | CNC1CN(c2cc(-c3ccnc(NC(C)=O)c3)cnc2C)S(=O)(=O)C1 (stereo not shown) [Compound I-325, N-{6-methyl-5-[4-(methylamino)-1,1-dioxidoisothiazolidin-2-yl]-3,4′-bipyridin-2′-yl}acetamide]
< 10 nM |  | Cc1ncc(-c2ccnc(NC(=O)OCc3ccn(C)n3)c2)cc1NS(=O)(=O)c1ccc(F)cc1F [Compound I-326, (1-methyl-1H-pyrazol-3-yl)methyl (5-{[(2,4-difluorophenyl)sulfonyl]amino}-6-methyl-3,4′-bipyridin-2′-yl)carbamate]
10 to 50 nM |  | COc1ncc(-c2ccnc(NC(C)=O)c2)cc1S(=O)(=O)Nc1cccc(C(F)(F)F)c1 [Compound I-329, N-(6-methoxy-5-{[3-(trifluoromethyl)phenyl]sulfamoyl}-3,4′-bipyridin-2′-yl)acetamide]
10 to 50 nM |  | COC(=O)Nc1cc(-c2cncc(S(=O)(=O)N3CCOCC3)c2)ccn1 [Compound I-332, methyl [5-(morpholin-4-ylsulfonyl)-3,4′-bipyridin-2′-yl]carbamate]
10 to 50 nM |  | CC(=O)Nc1cc(-c2cnc(Cl)c(NS(=O)(=O)c3ccc(C(F)(F)F)cc3Cl)c2C)ccn1 [Compound I-333, N-(6-chloro-5-(2-chloro-4-(trifluoromethyl)phenylsulfonamido)-4-methyl-[3,4′-bipyridin]-2′-yl)acetamide]
10 to 50 nM |  | CC(=O)Nc1cc(-c2cnc(Cl)c(NS(=O)(=O)c3ccc(C4CC4)cc3F)c2C)ccn1 [Compound I-335, N-(6-chloro-5-{[(4-cyclopropyl-2-fluorophenyl)sulfonyl]amino}-4-methyl-3,4′-bipyridin-2′-yl)acetamide]
10 to 50 nM |  | Cc1nccc(Nc2cc(-c3cncc(C(C)Oc4ccccc4Cl)c3)ccn2)n1 (stereo not shown) [Compound I-336, 5-[1-(2-chlorophenoxy)ethyl]-N-(2-methylpyrimidin-4-yl)-3,4′-bipyridin-2′-amine]
10 to 50 nM |  | CC(=O)Nc1cc(-c2cncc(S(=O)(=O)NC3CC3)c2)ccn1 [Compound I-338]
< 10 nM | >99% | CC(=O)Nc1cc(-c2cnc(C)c(NS(=O)(=O)c3cccc(Cl)c3Cl)c2)ccn1 [Compound I-342, N-(5-{[(2,3-dichlorophenyl)sulfonyl]amino}-6-methyl-3,4′-bipyridin-2′-yl)acetamide]
< 10 nM |  | CCCCN(CCCC)S(=O)(=O)Nc1cc(-c2ccnc(NC(C)=O)c2)cnc1C [Compound I-350, N-{5-[(dibutylsulfamoyl)amino]-6-methyl-3,4′-bipyridin-2′-yl}acetamide]
< 10 nM |  | CC(=O)Nc1cc(-c2cnc(C)c(NS(=O)(=O)c3ccc(C#N)cc3F)c2)ccn1 [Compound I-356, N-(5-{[(4-cyano-2-fluorophenyl)sulfonyl]amino}-6-methyl-3,4′-bipyridin-2′-yl)acetamide]
